# According to patent publication US11873267B2, “Functionalized N,N-dialkylamino phenyl ethers and their method of use” (Temple University-Of The Commonwealth System of Higher …, priority 2016, dated 2024):
# Counter-ions that a name gives are not always drawn.
# Assays:
# [1] = system: Gaucher patient fibroblasts (Coreill Institute, GM08760); experiment: GPN induced calcium release phenotypic assay on Gaucher patient fibroblasts; format: cell-based, human; conditions: for Maximal % Change in GPN Response: ratio of GPN response with drug / without drug x 100; for EC50: Homo sapiens, Fibroblast, 12-point dilution curve in triplicate
# [2] = system: β-Glucocerebrosidase (GCase); experiment: β-Glucocerebrosidase (GCase) activity in lysates of compound-treated Gaucher patient fibroblasts (4-MUG substrate); format: cell-based, human; conditions: 10 μM, 3 days, Gaucher patient fibroblast lysates, no change = 1
# Description: Cellular lysates were prepared from compound treated cells and non-treated cells were included as a control. β-Glucocerebrosidase (GCase) activity was directly measured from lysates prepared from treated cells using a fluorescent substrate 4-methylumbelliferyl-β-D-glucopyranoside (MUG). Cells were washed 3× with phosphate-buffered saline (PBS) and detached by scraping. After centrifugation, The pellets were frozen on dry ice, thawed and lysed in McIlvaine (MI) buffer (100 mM sodium citrate, 200 mM sodium phosphate dibasic, 0.25% sodium taurocholate, and 0.1% Triton X-100, pH 5.2 containing protease inhibitors). Lysates are incubated with 3.0 mM 4-methylumbeliferryl-β-glucoside (4-MUG) substrate in MI buffer (50 μL) at 37° C. for 60 minutes. Reactions were stopped by addition of 0.4 M glycine, pH 10.6 (70 μL). Fluorescence was measured on a Clariostar plate reader (BMG Labtech) for one second per well using 355 nm excitation and 460 nm emission. Total protein was determined with the Bradford protein assay kit (BioRad) according to the manufacturer's instructions. The GCase activity measured after compound treatment is normalized to non-treated cells and expressed as relative activity where no change in GCAse activity is equal 1 (FIG. 3).
# [3] = system: Wild-type patient fibroblasts (Coriell Institute, GM 005659); conditions: wild type patient cells
# Description: Gaucher patient fibroblasts (Coreill Institute, GM08760) were cultured in EMEM with 15% FBS, 1% Pen/Strep at 37° C./5% CO2. Wild-type patient fibroblasts (Coriell Institute, GM 005659) were used as a control cell line. Cells are plated with a MultiFlo dispenser (800 cells/well in 30 μL of complete growth media) in black/clear bottom 384-well plates and cultured for 24 hours at 37° C., 5% CO2. Compounds of the disclosure are then added to the cells (12 point dose response curve, 150 nM to 30 uM final compound concentration using a 5.0 μL of a 7× stock solution (1.05 μM to 210 μM)) under sterile conditions and continued in culture for 72 hours at 37° C., 5% CO2. […] The data from each well were normalized with basal fluorescence by dividing the maximum fluorescence over the entire real time reading by the initial basal fluorescence.
# Cells (800 cells/well) were plated with a MultiFlo dispenser (BioTek) and cultured for 24 h at 37° C., 5% CO2. […] Cells were loaded with Screen Quest™ Fluo-8 No Wash Calcium mix (ATT Bio) and analyzed for changes in response to GPN. The data from each well were normalized with basal fluorescence by dividing the maximum fluorescence over the entire real time reading by the initial basal fluorescence. […] EC50 and Hill slope values are determined using a four-parameter dose-response (variable slope) equation in GraphPad Prism.
# [4] = Gaucher patient cells, 72 hours compound treatment
SMILES,"Maximal % Change in GPN Response [1, 4] [%]","EC50 [1, 4] [µM]",GCase activity relative to non-treated cells [2],"increase in calcium response compared with 0.1% DMSO treated Gaucher patient cells ([1]; 72 hours compound treatment, GPN response) [%]","activity to increase lysosomal calcium signaling (Prestwick Chemical Library screen) ([1]; Gaucher patient cells, 72 hours, confirmed in triplicate)",increase in GPN-induced calcium response [3]
"CCCCC(=Cc1ccc(OCCN(C)C)cc1)c1ccccc1 (stereo in doubt) [Example 4, (Z)—N,N-dimethyl-2-(4-(2-phenylhex-1-en-1-yl)phenoxy)ethan-1-amine trifluoroacetate]",56,7.2,,,,
"CC/C(=C\c1ccc(OCCN(C)C)cc1)c1ccccc1 [Example 1, (E)-N,N-Dimethyl-2-(4-(2-(phenyl)but-1-en-1-yl)phenoxy)ethan-1-amine]",70,6,,,,
"CC/C(=C/c1ccc(OCCN(C)C)cc1)c1ccccc1 [Example 2, (Z)—N,N-Dimethyl-2-(4-(2-(phenyl)but-1-en-1-yl)phenoxy)ethan-1-amine trifluoroacetate]",62,14.1,,,,
"CC/C(=C\c1ccc(OCCN2CCCC2)cc1)c1ccccc1 [Example 3, (E)-1-(2-(4-(2-phenylbut-1-en-1-yl)phenoxy)ethyl)pyrrolidine]",175,5.3,,,,
"C/C(=C/c1ccc(OCCN2CCCC2)cc1)c1ccccc1 [Example 5, (Z)-1-(2-(4-(2-phenylprop-1-en-1-yl)phenoxy)ethyl)pyrrolidine]",72,2.1,,,,
"CC/C(=C/c1ccc(OCCN(C)C)cc1)c1ccc([N+](=O)[O-])cc1 [Example 6, (Z)—N,N-Dimethyl-2-(4-(2-(4-nitrophenyl)but-1-en-1-yl)phenoxy) ethan-1-amine]",47,4.3,,,,
"CC/C(=C\c1ccccc1)c1ccc(OCCN(C)C)cc1 [Example 9, (E)-N,N-Dimethyl-2-(4-(1-phenylbut-1-en-2-yl)phenoxy)ethan-1-amine]",53,3,,,,
"CC/C(=C\c1ccccc1)c1ccc(OCCN2CCCC2)cc1 [Example 10, (E)-1-(2-(4-(1-Phenylbut-1-en-2-yl)phenoxy)ethyl)pyrrolidine]",48,1.1,,,,
"CC(C)C(C(=O)c1ccc(OCCN(C)C)cc1)c1ccccc1 (stereo not drawn) [Example 11, 1-(4-(2-Dimethylaminoethoxy)-phenyl)-3-methyl-2-phenylbutan-1-one]",54,3.3,,,,
CC(C)CCC(C(=O)c1ccc(OCCN(C)C)cc1)c1ccccc1 (stereo not drawn) [Example 13],191,1.5,,,,
"CC(C)CC(C(=O)c1ccc(OCCN(C)C)cc1)c1ccccc1 (stereo not drawn) [Example 14, 1-(4-(2-(Dimethylamino)ethoxy)phenyl)-4-methyl-2-phenylpentan-1-one]",108,0.7,,,,
"C=Cc1ccccc1C(CCCC)C(=O)c1ccc(OCCN(C)C)cc1 (stereo not drawn) [Example 15, 1-(4-(2-(dimethylamino)ethoxy)phenyl)-2-(2-vinylphenyl)hexan-1-one]",217,2.7,,,,
"CCCCC(C(=O)c1ccc(OCCN(C)C)cc1)c1ccccc1CC (stereo not drawn) [Example 16, 1-(4-(2-(dimethylamino)ethoxy)phenyl)-2-(2-ethylphenyl)hexan-1-one]",138,0.65,,,,
C=C(C)c1ccccc1C(CCCC)C(=O)c1ccc(OCCN(C)C)cc1 (stereo not drawn) [Example 17],275,2.2,,,,
"CCCCC(C(=O)c1ccc(OCCN(C)C)cc1)c1ccccc1C(C)C (stereo not drawn) [Example 18, 1-(4-(2-(Dimethylamino)ethoxy)phenyl)-2-(2-isopropylphenyl)hexan-1-one]",233,0.33,,,,
"CCCCC(C(=O)c1ccc(OCCN(C)C)cc1)c1ccccc1 (stereo not drawn) [MC150235, 1-(4-(2-(Dimethylamino)ethoxy)phenyl)-2-phenylhexan-1-one]",87,2.4,increase in GCase activity,,,
"CCC(Cc1ccc(OCCN(C)C)cc1)c1ccccc1 (stereo not drawn) [MC210155, N,N-Dimethyl-2-(4-(2-phenylbutyl)phenoxy)ethan-1-amine trifluoroacetate]",154,4.8,increase in GCase activity,,,
"CC/C(=C(\c1ccccc1)c1ccc(OCCN(C)C)cc1)c1ccccc1 [Tamoxifen, reference compound]",,,,200±50,active compound,40+/−20%
